According to article PMC10599482 (Chemical Science, 2023):

Experiment: CD spectroscopy, percent helicity
Type: physicochemical
Conditions: 50.0% TFE aqueous solution, 0.1 mg/mL peptide, 20 °C, calculated from [θ]222

Which “α-Helicity (%)” value does the source give for `CC[C@H](C)[C@H](NC(=O)[C@H](C)NC(=O)[C@H](CCC(=O)O)NC(=O)[C@H](CCC(=O)O)NC(=O)[C@H](CC(C)C)NC(=O)[C@H](CCCCN)NC(=O)[C@H](CCCCN)NC(=O)[C@H](CCSC)NC(=O)[C@H](CCC(=O)O)NC(=O)[C@H](Cc1ccc(O)cc1)NC(=O)[C@H](CCC(=O)O)NC(=O)[C@H](CC(C)C)NC(=O)[C@H](CC(=O)O)NC(=O)[C@H](CC(C)C)NC(=O)[C@H](Cc1ccccc1)NC(=O)[C@@H](NC(=O)[C@@H](NC(=O)[C@H](CC(N)=O)NC(=O)[C@@H](NC(=O)[C@H](CCC(N)=O)NC(=O)[C@H](CC(=O)O)NC(=O)[C@H](CC(C)C)NC(=O)[C@H](CO)NC(C)=O)[C@@H](C)CC)C(C)C)[C@@H](C)O)C(=O)N[C@@H](CCCCN)C(=O)N[C@@H](CCCCN)C(=O)N[C@@H](CC(C)C)C(=O)N[C@@H](CCC(=O)O)C(=O)N[C@@H](CCC(=O)O)C(=O)N[C@@H](CO)C(=O)N[C@@H](Cc1ccc(O)cc1)C(=O)N[C@H](C(=O)N[C@@H](CC(=O)O)C(=O)N[C@@H](CC(C)C)C(=O)N[C@@H](CCCCN)C(=O)N[C@@H](CCC(=O)O)C(=O)N[C@@H](CC(C)C)C(N)=O)[C@@H](C)CC` [EK1] here?
Its value is 13.6%.
